According to PubChem BioAssay AID220 (DTP/NCI, 2004):
Where “and” joins values, the source holds several entries; their conditions need not be identical. Identical values can stand only once. Results filed as inconclusive are left out.

Test system: CD8F1 mice, subcutaneous mammary adenocarcinoma, T/C%
Experiment: NCI In Vivo Anticancer Drug Screen. Data for tumor model Mammary Adenocarcinoma CD8F1 (subcutaneous) in CD8F1
Conditions: higher = larger tumour
Method in brief: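 Compound-treated versus vehicle-treated mice with transplantable tumors; survival or tumor size compared as T/C.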

[1] = endpoint: median tumor weight (est.), dose: 0.5 mg/kg/injection, schedule: Q07DX005 (ip), vehicle: saline
[2] = endpoint: median tumor weight (est.), dose: 1.0 mg/kg/injection, schedule: Q07DX005 (ip), vehicle: saline
[3] = endpoint: mean tumor weight, dose: 200.0 mg/kg/injection, schedule: Q07DX005 (ip), vehicle: saline
[4] = endpoint: mean tumor weight, dose: 200.0 mg/kg/injection, schedule: Q07DX007 (ip), vehicle: saline
[5] = endpoint: median tumor weight (est.), dose: 25.0 mg/kg/injection, schedule: Q07DX005 (ip), vehicle: saline
[6] = endpoint: median tumor weight (est.), dose: 50.0 mg/kg/injection, schedule: Q07DX005 (ip), vehicle: saline

In the case of O=C(O)[C@H](Cc1ccccc1)N1C(=O)c2ccccc2C1=O, the T/C (endpoint: median tumor weight change, dose: 62.5 mg/kg/injection, schedule: Q01DX001 (ip), vehicle: DMSO) is reported as 75 % of control, the T/C (endpoint: median tumor weight change, dose: 125.0 mg/kg/injection, schedule: Q01DX001 (ip), vehicle: DMSO) is reported as 116 % of control and the T/C (endpoint: median tumor weight change, dose: 250.0 mg/kg/injection, schedule: Q01DX001 (ip), vehicle: DMSO) is reported as 68 % of control. The T/C (endpoint: median tumor weight change, dose: 500.0 mg/kg/injection, schedule: Q01DX001 (ip), vehicle: DMSO) was 59 % of control.

CCN1C=C/C(=C\C=C/c2cc[n+](CC)c3ccccc23)c2ccccc21 was tested, and the T/C (endpoint: median tumor weight (est.), dose: 0.06 mg/kg/injection, schedule: Q07DX005 (ip), vehicle: saline) was 123 % of control, the T/C (endpoint: median tumor weight (est.), dose: 0.06 mg/kg/injection, schedule: Q07DX005 (ip), vehicle: suspension in saline) was 104 % of control and the T/C (endpoint: median tumor weight (est.), dose: 0.12 mg/kg/injection, schedule: Q07DX005 (ip), vehicle: saline) was 88 % of control. The T/C (endpoint: median tumor weight (est.), dose: 0.12 mg/kg/injection, schedule: Q07DX005 (ip), vehicle: suspension in saline) was 83 % of control, the T/C (endpoint: median tumor weight (est.), dose: 0.25 mg/kg/injection, schedule: Q07DX005 (ip), vehicle: saline) was 150 % of control and the T/C (endpoint: median tumor weight (est.), dose: 0.25 mg/kg/injection, schedule: Q07DX005 (ip), vehicle: suspension in saline) was 119 % of control. For the same compound, the T/C [1] was 109 % of control, the T/C [2] was 101 % of control and the T/C (endpoint: median tumor weight (est.), dose: 1.0 mg/kg/injection, schedule: Q07DX005 (ip), vehicle: suspension in saline) was 75 % of control.

For CC[As](=O)(O)CC, the T/C (endpoint: mean tumor weight, dose: 12.5 mg/kg/injection, schedule: Q07DX005 (ip), vehicle: saline) was 100 % of control, the T/C (endpoint: mean tumor weight, dose: 12.5 mg/kg/injection, schedule: Q07DX007 (ip), vehicle: saline) was 70 % of control and the T/C (endpoint: mean tumor weight, dose: 25.0 mg/kg/injection, schedule: Q07DX005 (ip), vehicle: saline) was 34 % of control. The T/C (endpoint: mean tumor weight, dose: 25.0 mg/kg/injection, schedule: Q07DX007 (ip), vehicle: saline) was 56 % of control, the T/C (endpoint: mean tumor weight, dose: 50.0 mg/kg/injection, schedule: Q07DX007 (ip), vehicle: saline) was 38 % of control and the T/C (endpoint: mean tumor weight, dose: 100.0 mg/kg/injection, schedule: Q07DX005 (ip), vehicle: saline) was 98 % of control. For the same compound, the T/C (endpoint: mean tumor weight, dose: 100.0 mg/kg/injection, schedule: Q07DX007 (ip), vehicle: saline) was 111 % of control, the T/C [3] was 41 % of control and the T/C [4] was 53 % of control. For the same compound, the T/C (endpoint: median tumor weight (est.), dose: 12.5 mg/kg/injection, schedule: Q07DX005 (ip), vehicle: saline) was 96 % of control and 119 % of control, the T/C [5] was 62 % of control and 79 % of control and the T/C [6] was 121 % of control. For the same compound, the T/C (endpoint: median tumor weight (est.), dose: 200.0 mg/kg/injection, schedule: Q07DX005 (ip), vehicle: saline) was 20 % of control and 41 % of control and 43 % of control.

In the case of CNC(=O)OCc1c(COC(=O)NC)c(-c2ccccc2)n(C)c1-c1ccccc1, the T/C (endpoint: median tumor weight change, dose: 31.25 mg/kg/injection, schedule: Q01DX001 (ip), vehicle: distilled water + Tween-80) is reported as 54 % of control.

With CC(=O)[C@H]1CC[C@H]2[C@@H]3C[C@H](C)C4=CC(=O)CC[C@]4(C)[C@H]3C(=O)C[C@]12C the T/C (endpoint: mean tumor weight (est.), dose: 200.0 mg/kg/injection, schedule: Q07DX003 (ip), vehicle: saline) was 67 % of control, the T/C (endpoint: mean tumor weight (est.), dose: 400.0 mg/kg/injection, schedule: Q07DX003 (ip), vehicle: saline) was 61 % of control and the T/C (endpoint: mean tumor weight (est.), dose: 800.0 mg/kg/injection, schedule: Q07DX003 (ip), vehicle: saline) was 86 % of control. For the same compound, the T/C [3] was 107 % of control, the T/C (endpoint: mean tumor weight, dose: 200.0 mg/kg/injection, schedule: Q07DX006 (ip), vehicle: saline) was 63 % of control and the T/C [4] was 90 % of control. For the same compound, the T/C (endpoint: mean tumor weight, dose: 400.0 mg/kg/injection, schedule: Q07DX005 (ip), vehicle: saline) was 54 % of control, the T/C (endpoint: mean tumor weight, dose: 400.0 mg/kg/injection, schedule: Q07DX006 (ip), vehicle: saline) was 39 % of control and the T/C (endpoint: mean tumor weight, dose: 400.0 mg/kg/injection, schedule: Q07DX007 (ip), vehicle: saline) was 25 % of control. The T/C (endpoint: mean tumor weight, dose: 800.0 mg/kg/injection, schedule: Q07DX005 (ip), vehicle: saline) was 36 % of control and the T/C (endpoint: mean tumor weight, dose: 800.0 mg/kg/injection, schedule: Q07DX007 (ip), vehicle: saline) was 49 % of control.

For COc1ccc(C(N)=O)cc1N=NN(C)C, the T/C (endpoint: median tumor weight (est.), dose: 6.25 mg/kg/injection, schedule: Q07DX005 (ip), vehicle: Klucel (hydroxypropylcellulose) (HPC)) was 175 % of control.

In the case of CCNC(C)(C)C(SSS)c1ccco1 (stereo not given), the T/C (endpoint: median tumor weight change, dose: 31.25 mg/kg/injection, schedule: Q01DX001 (ip), vehicle: saline with Tween-80) is reported as 97 % of control, the T/C (endpoint: median tumor weight change, dose: 62.5 mg/kg/injection, schedule: Q01DX001 (ip), vehicle: saline with Tween-80) is reported as 87 % of control and the T/C (endpoint: median tumor weight change, dose: 125.0 mg/kg/injection, schedule: Q01DX001 (ip), vehicle: saline with Tween-80) is reported as 65 % of control. For the same compound, the T/C (endpoint: median tumor weight change, dose: 250.0 mg/kg/injection, schedule: Q01DX001 (ip), vehicle: saline with Tween-80) was 59 % of control.

For O=P1(NCCCl)OCCCN1CCCl (stereo not given), the T/C [5] was 26 % of control and 29 % of control, the T/C [6] was 11 % of control and 12 % of control and the T/C (endpoint: median tumor weight (est.), dose: 100.0 mg/kg/injection, schedule: Q07DX005 (ip), vehicle: saline) was 6 % of control.

For NCCCC(N)(C(=O)O)C(F)F (stereo not given), the T/C (endpoint: median tumor weight change, dose: 125.0 mg/kg/injection, schedule: Q01DX001 (ip), vehicle: distilled water + alcohol) was 29 % of control, the T/C (endpoint: median tumor weight change, dose: 250.0 mg/kg/injection, schedule: Q01DX001 (ip), vehicle: distilled water + alcohol) was 51 % of control and the T/C (endpoint: median tumor weight change, dose: 500.0 mg/kg/injection, schedule: Q01DX001 (ip), vehicle: distilled water + alcohol) was 64 % of control. The T/C (endpoint: median tumor weight change, dose: 1000.0 mg/kg/injection, schedule: Q01DX001 (ip), vehicle: distilled water + alcohol) was 36 % of control and the T/C (endpoint: median tumor weight change, dose: 2000.0 mg/kg/injection, schedule: Q01DX001 (ip), vehicle: distilled water + alcohol) was 72 % of control.

CCC1=C[C@H]2CN(CCc3c([nH]c4ccccc34)[C@@](C(=O)OC)(c3cc4c(cc3OC)N(C)[C@H]3[C@@](O)(C(=O)NC)[C@H](OC(C)=O)[C@]5(CC)C=CCN6CC[C@]43[C@@H]65)C2)C1 was tested, and the T/C (endpoint: median tumor weight (est.), dose: 0.03 mg/kg/injection, schedule: Q07DX005 (ip), vehicle: water) was 93 % of control, the T/C (endpoint: median tumor weight (est.), dose: 0.06 mg/kg/injection, schedule: Q07DX005 (ip), vehicle: water) was 98 % of control and the T/C (endpoint: median tumor weight (est.), dose: 0.12 mg/kg/injection, schedule: Q07DX005 (ip), vehicle: water) was 91 % of control. The T/C [1] was 86 % of control, the T/C (endpoint: median tumor weight (est.), dose: 0.5 mg/kg/injection, schedule: Q07DX005 (ip), vehicle: water) was 73 % of control and the T/C [2] was 46 % of control. The T/C (endpoint: median tumor weight (est.), dose: 1.0 mg/kg/injection, schedule: Q07DX005 (ip), vehicle: water) was 57 % of control and the T/C (endpoint: median tumor weight (est.), dose: 2.0 mg/kg/injection, schedule: Q07DX005 (ip), vehicle: water) was 3 % of control.

In the case of O=NN(CCCl)C(=O)NC1CCCCC1, the T/C (endpoint: mean tumor weight (est.), dose: 25.0 mg/kg/injection, schedule: Q07DX003 (ip), vehicle: saline + alcohol) is reported as 88 % of control, the T/C (endpoint: mean tumor weight (est.), dose: 50.0 mg/kg/injection, schedule: Q07DX003 (ip), vehicle: saline + alcohol) is reported as 28 % of control and the T/C (endpoint: mean tumor weight, dose: 6.25 mg/kg/injection, schedule: Q01DX009 (ip), vehicle: saline) is reported as 78 % of control. For the same compound, the T/C (endpoint: mean tumor weight, dose: 12.5 mg/kg/injection, schedule: Q01DX009 (ip), vehicle: saline) was 75 % of control, the T/C (endpoint: mean tumor weight, dose: 12.5 mg/kg/injection, schedule: Q07DX006 (ip), vehicle: saline + alcohol) was 74 % of control and the T/C (endpoint: mean tumor weight, dose: 25.0 mg/kg/injection, schedule: Q01DX009 (ip), vehicle: saline) was 28 % of control. The T/C (endpoint: mean tumor weight, dose: 25.0 mg/kg/injection, schedule: Q07DX006 (ip), vehicle: saline + alcohol) was 44 % of control, the T/C (endpoint: mean tumor weight, dose: 25.0 mg/kg/injection, schedule: Q07DX006 (ip), vehicle: saline) was 61 % of control and the T/C (endpoint: mean tumor weight, dose: 50.0 mg/kg/injection, schedule: Q07DX006 (ip), vehicle: saline + alcohol) was 11 % of control. For the same compound, the T/C (endpoint: mean tumor weight, dose: 50.0 mg/kg/injection, schedule: Q07DX006 (ip), vehicle: saline) was 220 % of control, the T/C (endpoint: median tumor weight (est.), dose: 8.0 mg/kg/injection, schedule: Q07DX005 (ip), vehicle: Klucel (hydroxypropylcellulose) (HPC)) was 99 % of control and the T/C (endpoint: median tumor weight (est.), dose: 16.0 mg/kg/injection, schedule: Q07DX005 (ip), vehicle: Klucel (hydroxypropylcellulose) (HPC)) was 30 % of control. The T/C (endpoint: median tumor weight (est.), dose: 32.0 mg/kg/injection, schedule: Q07DX005 (ip), vehicle: Klucel (hydroxypropylcellulose) (HPC)) was 29 % of control, the T/C (endpoint: median tumor weight change, dose: 4.0 mg/kg/injection, schedule: Q01DX001 (ip), vehicle: Klucel (hydroxypropylcellulose) (HPC)) was 66 % of control and the T/C (endpoint: median tumor weight change, dose: 8.0 mg/kg/injection, schedule: Q01DX001 (ip), vehicle: Klucel (hydroxypropylcellulose) (HPC)) was 73 % of control. For the same compound, the T/C (endpoint: median tumor weight change, dose: 15.0 mg/kg/injection, schedule: Q01DX001 (ip), vehicle: Klucel (hydroxypropylcellulose) (HPC)) was 91 % of control, the T/C (endpoint: median tumor weight change, dose: 16.0 mg/kg/injection, schedule: Q01DX001 (ip), vehicle: Klucel (hydroxypropylcellulose) (HPC)) was 55 % of control and the T/C (endpoint: median tumor weight change, dose: 30.0 mg/kg/injection, schedule: Q01DX001 (ip), vehicle: Klucel (hydroxypropylcellulose) (HPC)) was 34 % of control. For the same compound, the T/C (endpoint: median tumor weight change, dose: 32.0 mg/kg/injection, schedule: Q01DX001 (ip), vehicle: Klucel (hydroxypropylcellulose) (HPC)) was 40 % of control, the T/C (endpoint: median tumor weight change, dose: 60.0 mg/kg/injection, schedule: Q01DX001 (ip), vehicle: Klucel (hydroxypropylcellulose) (HPC)) was -23 % of control and the T/C (endpoint: median tumor weight change, dose: 80.0 mg/kg/injection, schedule: Q01DX001 (ip), vehicle: Klucel (hydroxypropylcellulose) (HPC)) was 17 % of control.
